# In patent US12018021B2 (UCB Biopharma SRL, priority 2018, dated 2024):
# Molecular target: IgE-Tb / sFcεRIα-Y131A-AF488 (Homo sapiens, UniProt P01854, N146Q/N252Q)
# Test: IgE-Tb / sFcεRIα-Y131A-AF488 FRET assay (protocol for examples 234 to 501)
# Assay type: binding
# Conditions: examples 234 to 501: compound with IgE-Tb 30 minutes before sFcεRIα-Y131A-AF488, incubated 18 hours at room temperature; read-out: Y131A FRET IC50 range
# Method in brief: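 Compounds (10-point 3-fold series, top usually 10 μM, 2% DMSO) preincubated 30 min with 5 nM IgE-Tb, then 25 nM sFcεRIα-Y131A-AF488 added; 18 h at room temperature in the dark. TR-FRET ratio 520/490 nm after 337 nm excitation, background-subtracted; IC50 by four-parameter logistic fit.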
# Chain of IgE-Tb / sFcεRIα-Y131A-AF488 (P01854 whole entry N146Q/N252Q): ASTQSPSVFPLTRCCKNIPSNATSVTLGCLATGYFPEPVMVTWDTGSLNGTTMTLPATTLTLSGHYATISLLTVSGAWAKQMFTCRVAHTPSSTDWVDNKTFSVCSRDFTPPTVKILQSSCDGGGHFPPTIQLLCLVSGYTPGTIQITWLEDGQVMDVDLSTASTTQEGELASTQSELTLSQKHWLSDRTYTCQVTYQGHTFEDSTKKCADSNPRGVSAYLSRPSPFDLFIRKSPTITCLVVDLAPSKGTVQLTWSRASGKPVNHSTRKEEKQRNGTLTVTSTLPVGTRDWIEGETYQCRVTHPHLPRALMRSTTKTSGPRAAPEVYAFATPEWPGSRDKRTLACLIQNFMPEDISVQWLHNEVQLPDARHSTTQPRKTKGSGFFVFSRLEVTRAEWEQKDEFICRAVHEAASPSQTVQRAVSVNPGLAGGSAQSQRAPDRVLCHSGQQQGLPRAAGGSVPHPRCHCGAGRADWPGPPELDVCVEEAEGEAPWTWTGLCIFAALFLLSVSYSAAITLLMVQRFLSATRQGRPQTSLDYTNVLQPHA
row,SMILES,IC50
1,"Cn1nc(OC(F)F)cc1Nc1nncn1[C@H]1CCc2sc(NC(=O)C3CC(F)(F)C3)c(C(=O)NCC3CC3)c2C1 [Example 346, (5S)—N-(cyclopropylmethyl)-2-[(3,3-difluorocyclobutanecarbonyl)amino]-5-[3-[[5-(difluoromethoxy)-2-methylpyrazol-3-yl]amino]-1,2,4-triazol-4-yl]-4,5,6,7-tetrahydro-1-benzothiophene-3-carboxamide]",< 1 µM
2,"Cn1nc(OC(F)F)cc1Nc1nncn1[C@H]1CCc2sc(NC(=O)[C@H]3C[C@@H](F)C3)c(C(=O)NCC3CC3)c2C1 [Example 347, (5S)—N-(cyclopropylmethyl)-5-[3-[[5-(difluoromethoxy)-2-methylpyrazol-3-yl]amino]-1,2,4-triazol-4-yl]-2-[cis-(3-fluorocyclobutanecarbonyl)amino]-4,5,6,7-tetrahydro-1-benzothiophene-3-carboxamide]",< 1 µM
3,"Cn1nc(OC(F)F)cc1Nc1nncn1[C@H]1CCc2sc(NC(=O)C3CC3)c(C(=O)NCC3CC3)c2C1 [Example 351, (5S)-2-(cyclopropanecarbonylamino)-N-(cyclopropylmethyl)-5-[3-[[5-(difluoromethoxy)-2-methylpyrazol-3-yl]amino]-1,2,4-triazol-4-yl]-4,5,6,7-tetrahydro-1-benzothiophene-3-carboxamide]",< 1 µM
4,"C[C@H]1C[C@@H]1C(=O)Nc1sc2c(c1C(=O)NCC1CC1)C[C@@H](n1cnnc1Nc1cc(OC(F)F)nn1C)CC2 [Example 352, (5S)—N-(cyclopropylmethyl)-5-[3-[[5-(difluoromethoxy)-2-methylpyrazol-3-yl]amino]-1,2,4-triazol-4-yl]-2-[[(1S,2S)-2-methylcyclopropanecarbonyl]amino]-4,5,6,7-tetrahydro-1-benzothiophene-3-carboxamide]",< 1 µM
5,"Cn1nc(C(F)F)cc1Nc1nncn1[C@H]1CCc2sc(NC(=O)C3CC(F)C3)c(C(=O)NCC3CC3)c2C1 (stereo partly drawn) [Example 353, (5S)—N-(cyclopropylmethyl)-5-[3-[[5-(difluoromethyl)-2-methylpyrazol-3-yl]amino]-1,2,4-triazol-4-yl]-2-[(3-fluorocyclobutanecarbonyl)amino]-4,5,6,7-tetrahydro-1-benzothiophene-3-carboxamide]",< 1 µM
6,"Cn1nc(C(F)F)cc1Nc1nncn1[C@H]1CCc2sc(NC(=O)[C@H]3C[C@H](F)C3)c(C(=O)NCC3CC3)c2C1 [Example 354, (5S)—N-(cyclopropylmethyl)-5-[3-[[5-(difluoromethyl)-2-methylpyrazol-3-yl]amino]-1,2,4-triazol-4-yl]-2-[trans-(3-fluorocyclobutanecarbonyl)amino]-4,5,6,7-tetrahydro-1-benzothiophene-3-carboxamide]",< 1 µM
7,"Cn1nc(C(F)F)cc1Nc1nncn1[C@H]1CCc2sc(NC(=O)C3COC3)c(C(=O)NCC3CC3)c2C1 [Example 356, N-[(5S)-3-(cyclopropylmethylcarbamoyl)-5-[3-[[5-(difluoromethyl)-2-methylpyrazol-3-yl]amino]-1,2,4-triazol-4-yl]-4,5,6,7-tetrahydro-1-benzothiophen-2-yl]oxetane-3-carboxamide]",< 1 µM
8,"Cn1nc(C(F)F)cc1Nc1nncn1[C@H]1CCc2sc(NC(=O)C3CC(F)(F)C3)c(C(=O)NCC3CC3)c2C1 [Example 357, (5S)—N-(cyclopropylmethyl)-2-[(3,3-difluorocyclobutanecarbonyl)amino]-5-[3-[[5-(difluoromethyl)-2-methylpyrazol-3-yl]amino]-1,2,4-triazol-4-yl]-4,5,6,7-tetrahydro-1-benzothiophene-3-carboxamide]",< 1 µM
9,"Cn1nc(C(F)F)cc1Nc1nncn1[C@H]1CCc2sc(NC(=O)CC(F)F)c(C(=O)NCC3CC3)c2C1 [Example 358, (5S)—N-(cyclopropylmethyl)-5-[3-[[5-(difluoromethyl)-2-methylpyrazol-3-yl]amino]-1,2,4-triazol-4-yl]-2-(3,3-difluoropropanoylamino)-4,5,6,7-tetrahydro-1-benzothiophene-3-carboxamide]",< 1 µM
10,"Cn1nc(C(F)F)cc1Nc1nncn1[C@H]1CCc2sc(NC(=O)C3CCC3)c(C(=O)NCC3CC3)c2C1 [Example 359, (5S)-2-(cyclobutanecarbonylamino)-N-(cyclopropylmethyl)-5-[3-[[5-(difluoromethyl)-2-methylpyrazol-3-yl]amino]-1,2,4-triazol-4-yl]-4,5,6,7-tetrahydro-1-benzothiophene-3-carboxamide]",< 1 µM
11,"CC(C)C(=O)Nc1sc2c(c1C(=O)NCC1CC1)C[C@@H](n1cnnc1Nc1cc(C(F)F)nn1C)CC2 [Example 360, (5S)—N-(cyclopropylmethyl)-5-[3-[[5-(difluoromethyl)-2-methylpyrazol-3-yl]amino]-1,2,4-triazol-4-yl]-2-(2-methylpropanoylamino)-4,5,6,7-tetrahydro-1-benzothiophene-3-carboxamide]",< 1 µM
12,"Cn1nc(C(F)F)cc1Nc1nncn1[C@H]1CCc2sc(NC(=O)[C@H]3C[C@@H]3F)c(C(=O)NCC3CC3)c2C1 [Example 368, (5S)—N-(cyclopropylmethyl)-5-[3-[[5-(difluoromethyl)-2-methyl-pyrazol-3-yl]amino]-1,2,4-triazol-4-yl]-2-[[(1R,2S)-2-fluorocyclopropanecarbonyl]amino]-4,5,6,7-tetrahydrobenzothiophene-3-carboxamide]",< 1 µM
13,"Cn1nc(C(F)F)cc1Nc1nncn1[C@H]1CCc2sc(NC(=O)C3CC3)c(C(=O)N[C@H]3C[C@H](F)C3)c2C1 [Example 373, (5S)-2-(cyclopropanecarbonylamino)-5-[3-[[5-(difluoromethyl)-2-methylpyrazol-3-yl]amino]-1,2,4-triazol-4-yl]-N-(trans-3-fluorocyclobutyl)-4,5,6,7-tetrahydro-1-benzothiophene-3-carboxamide]",< 1 µM
14,"Cn1nc(OC(F)F)cc1Nc1nncn1[C@H]1CCc2sc(NC(=O)[C@H]3C[C@@H]3F)c(C(=O)NC[C@H]3C[C@H]3F)c2C1 [Example 380, (5S)-5-[3-[[5-(difluoromethoxy)-2-methylpyrazol-3-yl]amino]-1,2,4-triazol-4-yl]-2-[[(1R,2S)-2-fluorocyclopropanecarbonyl]amino]-N-[[(1R,2R)-2-fluorocyclopropyl]methyl]-4,5,6,7-tetrahydro-1-benzothiophene-3-carboxamide]",< 1 µM
15,"Cn1nc(C(F)F)cc1Nc1nncn1[C@H]1CCc2sc(NC(=O)C3CC3)c(C(=O)NC3CC(F)(F)C3)c2C1 [Example 387, (5S)-2-(cyclopropanecarbonylamino)-N-(3,3-difluorocyclobutyl)-5-[3-[[5-(difluoromethyl)-2-methylpyrazol-3-yl]amino]-1,2,4-triazol-4-yl]-4,5,6,7-tetrahydro-1-benzothiophene-3-carboxamide]",< 1 µM
16,"Cn1nc(C(F)F)cc1Nc1nncn1[C@H]1CCc2sc(NC(=O)C3CC3)c(C(=O)N[C@H]3C[C@@H](F)C3)c2C1 [Example 388, (5S)-2-(cyclopropanecarbonylamino)-5-[3-[[5-(difluoromethyl)-2-methylpyrazol-3-yl]amino]-1,2,4-triazol-4-yl]-N-(cis-3-fluorocyclobutyl)-4,5,6,7-tetrahydro-1-benzothiophene-3-carboxamide]",< 1 µM
17,"Cn1nc(C(F)F)cc1Nc1nncn1[C@H]1CCc2sc(NC(=O)C3CC3)c(C(=O)NCC3CC(F)(F)C3)c2C1 [Example 389, (5S)-2-(cyclopropanecarbonylamino)-N-[(3,3-difluorocyclobutyl)methyl]-5-[3-[[5-(difluoromethyl)-2-methylpyrazol-3-yl]amino]-1,2,4-triazol-4-yl]-4,5,6,7-tetrahydro-1-benzothiophene-3-carboxamide]",< 1 µM
18,"CC1CC1CNC(=O)c1c(NC(=O)C2CC2F)sc2c1CC(n1cnnc1Nc1cc(C(F)(F)F)nn1C)CC2 [Example 390, (5S)-2-[[(1R,2R)-2-fluorocyclopropanecarbonyl]amino]-N-[[1RS,2RS)-2-methylcyclopropyl]methyl]-5-[3-[[2-methyl-5-(trifluoromethyl)pyrazol-3-yl]amino]-1,2,4-triazol-4-yl]-4,5,6,7-tetrahydro-1-benzothiophene-3-carboxamide (cis)]",< 1 µM
19,"Cn1nc(C(F)(F)F)cc1Nc1nncn1[C@H]1CCc2sc(NC(=O)[C@H]3C[C@H]3F)c(C(=O)NC[C@@H]3C[C@@H]3F)c2C1 [Example 392, (5S)-2-[[(1R,2R)-2-fluorocyclopropanecarbonyl]amino]-N-[[(1S,2S)-2-fluorocyclopropyl]methyl]-5-[3-[[2-methyl-5-(trifluoromethyl)pyrazol-3-yl]amino]-1,2,4-triazol-4-yl]-4,5,6,7-tetrahydro-1-benzothiophene-3-carboxamide]",< 1 µM
20,"Cn1nc(C(F)(F)F)cc1Nc1nncn1[C@H]1CCc2sc(NC(=O)[C@H]3C[C@H]3F)c(C(=O)NC[C@H]3C[C@@H]3F)c2C1 [Example 395, (5S)-2-[[(1R,2R)-2-fluorocyclopropanecarbonyl]amino]-N-[[(1R,2S)-2-fluorocyclopropyl]methyl]-5-[3-[[2-methyl-5-(trifluoromethyl)pyrazol-3-yl]amino]-1,2,4-triazol-4-yl]-4,5,6,7-tetrahydro-1-benzothiophene-3-carboxamide]",< 1 µM
21,"Cn1nc(C(F)(F)F)cc1Nc1nncn1[C@H]1CCc2sc(NC(=O)[C@H]3C[C@H]3F)c(C(=O)NC[C@H]3C[C@H]3F)c2C1 [Example 399, (5S)-2-[[(1R,2R)-2-fluorocyclopropanecarbonyl]amino]-N-[[(1R,2R)-2-fluorocyclopropyl]methyl]-5-[3-[[2-methyl-5-(trifluoromethyl)pyrazol-3-yl]amino]-1,2,4-triazol-4-yl]-4,5,6,7-tetrahydro-1-benzothiophene-3-carboxamide]",< 1 µM
22,Cn1nc(C(F)(F)F)cc1Nc1nncn1[C@H]1CCc2sc(NC(=O)[C@@H]3C[C@@H]3F)c(C(=O)NCC3CC3)c2C1 [Example 401],< 1 µM
